The values below come from ChEMBL document CHEMBL1201862, “PubChem BioAssay data set” (2004).

Experiment in all cases: growth of human tumour cells (NCI), 48 h
The test system of experiment [1] is ACHN.
Experiment [2] concerns COLO 205.
For experiment [3], the system named is DLD-1.
The subject of experiment [4] is DMS-114.
The test system of experiment [5] is HL-60.
The subject of experiment [6] is HOP-92.
For experiment [7], the system named is M19-MEL.
The test system of experiment [8] is NCI-H522.
Experiment [9] deals with SR.
Experiment [10] relates to A498.
Experiment [11] has as its system BT-549.
Experiment [12] concerns DU-145.
For experiment [13], the system named is Hs-578T.
Experiment [14] has as its system MDA-MB-231.
Experiment [15] concerns MDA-MB-435.
The test system of experiment [16] is MDA-N.
In experiment [17] the test system is PC-3.
In experiment [18] the test system is UACC-257.
For experiment [19], the system named is HOP-18.
The test system of experiment [20] is SNB-78.

SMILES strings stand for the structures.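 48-hour exposure; five concentrations; linearly interpolated endpoints. Abbreviation: GI50, concentration required for 50% inhibition of growth.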 Activity calls are given as the source filed them. Cut-off read from the data, not from the text of the source: active = GI50 up to about 1.1 µM and inactive = higher.

Take `Cn1c(=O)n(CC2CS2)c2ccccc21` (configuration not stated): the GI50 in experiment [1] is > 100 µM (inactive); in experiment [2], > 100 µM (inactive); in experiment [3] it was > 100 µM (inactive); in experiment [4], 50.9 µM (inactive); in [5] it was 71.6 µM (inactive); in experiment [6], 68.4 µM (inactive). In addition, the GI50 in experiment [7] was > 100 µM (inactive); in [8] it was > 100 µM (inactive); in [9], 99.3 µM (inactive).
Consider `CC(C)(C)[Si](C)(C)OCC1OC(n2cnc3c(N)ncnc32)C2OC(=S)OC12` (configuration not stated), for which the GI50 in experiment [10] was 52.7 µM (inactive); in experiment [11], 25.1 µM (inactive); in experiment [2] it was 35.6 µM (inactive); in experiment [12] it was 25.1 µM (inactive); in experiment [5], > 100 µM (inactive); in experiment [6], 70.8 µM (inactive). In addition, the GI50 in experiment [13] is 41.5 µM (inactive); in experiment [14], 27.7 µM (inactive); in experiment [15], 19.9 µM (inactive); in experiment [16], 27.2 µM (inactive); in [17], 22 µM (inactive); in experiment [9] it was 38.5 µM (inactive). Moreover, in experiment [18], the GI50 is 43.3 µM (inactive).
As to `CC(C(=O)O)c1ccc(-n2nnc3c(=O)[nH][nH]c(=O)c32)cc1` (configuration not stated), the GI50 in experiment [1], in [11], in [2], in experiment [12], in [5] and in [14] was > 100 µM (inactive) in each case. Moreover, the GI50 in experiment [15], in experiment [16], in [17], in [9] and in experiment [18] was > 100 µM (inactive) each time.
`CN1Cc2cc(O)c(O)cc2C(O)C1` (configuration not stated): the GI50 in experiment [1] is > 100 µM (inactive); in experiment [11], > 100 µM (inactive); in [2], > 100 µM (inactive); in experiment [12], > 100 µM (inactive); in experiment [5], 38.3 µM (inactive); in experiment [6] it was > 100 µM (inactive). Besides, the GI50 was > 100 µM (inactive) in [13]; > 100 µM (inactive) in experiment [14]; 82.6 µM (inactive) in experiment [15]; 55.2 µM (inactive) in [16]; 49.3 µM (inactive) in experiment [8]; > 100 µM (inactive) in experiment [17]. Besides, the GI50 in [9] is 1.19 µM (inactive); in experiment [18] it was > 100 µM (inactive).
Take `O=C1CC(/C=C/c2ccco2)=C(O)C1=O`: the GI50 in experiment [1] is 15.9 µM (inactive); in experiment [11], 8.49 µM (inactive); in [2], 15.7 µM (inactive); in experiment [12], 16.2 µM (inactive); in experiment [5], 33.7 µM (inactive); in [6], 13.8 µM (inactive). Also, the GI50 in [13] is 16.7 µM (inactive); in experiment [14] it was 17.7 µM (inactive); in experiment [15], 16.4 µM (inactive); in experiment [16], 12.3 µM (inactive); in [8], 12.2 µM (inactive); in [17], 10.2 µM (inactive). Moreover, the GI50 in experiment [9] was 6.05 µM (inactive); in experiment [18], 15.7 µM (inactive).
As to `COc1cc(C2C3=C(CCC3=O)Oc3cc4c(cc32)OCO4)cc(OC)c1OC` (configuration not stated), the GI50 in experiment [1] is 0.337 µM (active); in [2], 0.336 µM (active); in experiment [4], 0.218 µM (active); in experiment [5], 0.204 µM (active); in experiment [19] it was > 100 µM (inactive); in [6] it was 0.036 µM (active). The GI50 is 0.412 µM (active) in experiment [7], 0.706 µM (active) in [20] and 0.406 µM (active) in [18].
Turning to `CC(C)=CC(=O)OC1C2C(C)C(=O)OC2C(O)C(C)C2C=CC(=O)C21C` (configuration not stated), the GI50 is 2.05 µM (inactive) in experiment [10]; 1.87 µM (inactive) in [2]; 1.14 µM (inactive) in experiment [3]; 2.58 µM (inactive) in experiment [4]; 0.826 µM (active) in experiment [5]; 6.67 µM (inactive) in experiment [19]. The GI50 in experiment [6] was 4.09 µM (inactive); in [7] it was 3.01 µM (inactive); in [8], 0.569 µM (active); in experiment [20], 3.24 µM (inactive); in experiment [18], 3.94 µM (inactive).
Consider `CN1OC(=O)N(C)C1c1ccccc1` (configuration not stated), for which the GI50 in experiment [10], in experiment [2], in experiment [3], in experiment [4], in [5] and in experiment [19] was > 100 µM (inactive) in each case. Moreover, the GI50 in experiment [6], in [7], in experiment [8], in [20] and in [18] was > 100 µM (inactive) throughout.
